Reference: ChEMBL document CHEMBL1201862, “PubChem BioAssay data set” (2004)
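Method: 48-hour compound exposure of cells in 96-well plates, five concentrations, linear interpolation of endpoints. GI50 marks 50% less growth.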 Active and inactive are the calls of the source. No stated cut-off is given here; in the data, active = GI50 up to about 1.1 µM and inactive = higher.

What was measured:
Experiment in all cases: DTP human tumour cell line panel, 48 h
786-0 = system: 786-0
A498 = system: A498
A549 = system: A549
ACHN = system: ACHN
BT-549 = system: BT-549
CAKI-1 = system: CAKI-1
CCRF-CEM = system: CCRF-CEM
COLO 205 = system: COLO 205
DU-145 = system: DU-145
EKVX = system: EKVX
HCT-116 = system: HCT-116
HL-60 = system: HL-60
HOP-62 = system: HOP-62
HOP-92 = system: HOP-92
HT-29 = system: HT-29
Hs-578T = system: Hs-578T
IGROV-1 = system: IGROV-1
K562 = system: K562
KM12 = system: KM12
LOX IMVI = system: LOX IMVI
M14 = system: M14
MCF7 = system: MCF7
MDA-MB-231 = system: MDA-MB-231
MDA-MB-435 = system: MDA-MB-435
MDA-N = system: MDA-N
MOLT-4 = system: MOLT-4
Malme-3M = system: Malme-3M
NCI-H226 = system: NCI-H226
NCI-H23 = system: NCI-H23
NCI-H522 = system: NCI-H522
NCI/ADR-RES = system: NCI/ADR-RES
OVCAR-3 = system: OVCAR-3
OVCAR-5 = system: OVCAR-5
OVCAR-8 = system: OVCAR-8
PC-3 = system: PC-3
RPMI-8226 = system: RPMI-8226
RXF 393 = system: RXF 393
SF-268 = system: SF-268
SF-295 = system: SF-295
SK-MEL-28 = system: SK-MEL-28
SK-MEL-2 = system: SK-MEL-2
SK-MEL-5 = system: SK-MEL-5
SK-OV-3 = system: SK-OV-3
SN12C = system: SN12C
SNB-75 = system: SNB-75
SR = system: SR
SW-620 = system: SW-620
T47D = system: T47D
TK-10 = system: TK-10
U-251 = system: U-251
UACC-257 = system: UACC-257
UACC-62 = system: UACC-62
UO-31 = system: UO-31
HCC 2998 = system: HCC 2998
HCT-15 = system: HCT-15
NCI-H460 = system: NCI-H460
OVCAR-4 = system: OVCAR-4
SF-539 = system: SF-539
SNB-19 = system: SNB-19

For `COC(=O)[C@@H]1CO[C@H](C(C)(C)C)N1C(=O)N1C=CC(=O)C[C@H]1C`, the GI50 (786-0) was > 100000 nM (inactive), the GI50 (A498) was > 100000 nM (inactive) and the GI50 (A549) was > 100000 nM (inactive). The GI50 (ACHN) was > 100000 nM (inactive), the GI50 (BT-549) was > 100000 nM (inactive) and the GI50 (CAKI-1) was > 100000 nM (inactive). The GI50 (CCRF-CEM) was > 100000 nM (inactive), the GI50 (COLO 205) was > 100000 nM (inactive) and the GI50 (DU-145) was > 100000 nM (inactive). For the same molecule, the GI50 (EKVX) was > 100000 nM (inactive), the GI50 (HCT-116) was > 100000 nM (inactive) and the GI50 (HL-60) was > 100000 nM (inactive). The GI50 (HOP-62) was > 100000 nM (inactive), the GI50 (HOP-92) was > 100000 nM (inactive) and the GI50 (HT-29) was > 100000 nM (inactive). For the same molecule, the GI50 (Hs-578T) was > 100000 nM (inactive), the GI50 (IGROV-1) was > 100000 nM (inactive) and the GI50 (K562) was > 100000 nM (inactive). The GI50 (KM12) was > 100000 nM (inactive), the GI50 (LOX IMVI) was > 100000 nM (inactive) and the GI50 (M14) was > 100000 nM (inactive). For the same molecule, the GI50 (MCF7) was > 100000 nM (inactive), the GI50 (MDA-MB-231) was > 100000 nM (inactive) and the GI50 (MDA-MB-435) was > 100000 nM (inactive). For the same molecule, the GI50 (MDA-N) was > 100000 nM (inactive), the GI50 (MOLT-4) was > 10000 nM (inactive) and the GI50 (Malme-3M) was > 100000 nM (inactive). The GI50 (NCI-H226) was > 100000 nM (inactive), the GI50 (NCI-H23) was > 100000 nM (inactive) and the GI50 (NCI-H522) was > 100000 nM (inactive). The GI50 (NCI/ADR-RES) was > 100000 nM (inactive), the GI50 (OVCAR-3) was > 100000 nM (inactive) and the GI50 (OVCAR-5) was > 100000 nM (inactive). For the same molecule, the GI50 (OVCAR-8) was > 100000 nM (inactive), the GI50 (PC-3) was > 100000 nM (inactive) and the GI50 (RPMI-8226) was > 100000 nM (inactive). For the same molecule, the GI50 (RXF 393) was > 100000 nM (inactive), the GI50 (SF-268) was > 100000 nM (inactive) and the GI50 (SF-295) was > 100000 nM (inactive). The GI50 (SK-MEL-28) was > 100000 nM (inactive), the GI50 (SK-MEL-2) was > 100000 nM (inactive) and the GI50 (SK-MEL-5) was > 100000 nM (inactive). For the same molecule, the GI50 (SK-OV-3) was > 100000 nM (inactive), the GI50 (SN12C) was > 100000 nM (inactive) and the GI50 (SNB-75) was > 100000 nM (inactive). For the same molecule, the GI50 (SR) was > 100000 nM (inactive), the GI50 (SW-620) was > 100000 nM (inactive) and the GI50 (T47D) was > 100000 nM (inactive). The GI50 (TK-10) was > 100000 nM (inactive), the GI50 (U-251) was > 100000 nM (inactive) and the GI50 (UACC-257) was > 100000 nM (inactive). The GI50 (UACC-62) was > 100000 nM (inactive) and the GI50 (UO-31) was > 100000 nM (inactive).
For `Nc1c2ccccc2nc2ccc3c(=O)cc(-c4ccccc4)oc3c12`, the GI50 (786-0) was 436 nM (active), the GI50 (A549) was 1400 nM (inactive) and the GI50 (ACHN) was 1120 nM (active). For the same molecule, the GI50 (BT-549) was 2800 nM (inactive), the GI50 (CAKI-1) was 1330 nM (inactive) and the GI50 (CCRF-CEM) was 445 nM (active). The GI50 (COLO 205) was 234 nM (active), the GI50 (DU-145) was 1750 nM (inactive) and the GI50 (EKVX) was 1340 nM (inactive). The GI50 (HCC 2998) was 492 nM (active), the GI50 (HCT-116) was 299 nM (active) and the GI50 (HCT-15) was 1020 nM. For the same molecule, the GI50 (HL-60) was 977 nM (active), the GI50 (HOP-62) was 940 nM (active) and the GI50 (HOP-92) was 1240 nM (inactive). For the same molecule, the GI50 (HT-29) was 465 nM (active), the GI50 (Hs-578T) was 1900 nM (inactive) and the GI50 (IGROV-1) was 1120 nM (inactive). The GI50 (K562) was 272 nM (active), the GI50 (KM12) was 596 nM (active) and the GI50 (LOX IMVI) was 406 nM (active). For the same molecule, the GI50 (M14) was 1210 nM (inactive), the GI50 (MCF7) was 649 nM (active) and the GI50 (MDA-MB-231) was 1140 nM (inactive). The GI50 (MDA-MB-435) was 1270 nM (inactive), the GI50 (MDA-N) was 815 nM (active) and the GI50 (MOLT-4) was 435 nM (active). The GI50 (Malme-3M) was 1660 nM (inactive), the GI50 (NCI-H226) was 1310 nM (inactive) and the GI50 (NCI-H23) was 1530 nM (inactive). For the same molecule, the GI50 (NCI-H460) was 646 nM (active), the GI50 (NCI-H522) was 1250 nM (inactive) and the GI50 (NCI/ADR-RES) was 1350 nM (inactive). The GI50 (OVCAR-3) was 1420 nM (inactive), the GI50 (OVCAR-4) was 426 nM (active) and the GI50 (OVCAR-5) was 1500 nM (inactive). The GI50 (OVCAR-8) was 611 nM (active), the GI50 (PC-3) was 1260 nM (inactive) and the GI50 (RPMI-8226) was 473 nM (active). The GI50 (RXF 393) was 1320 nM (inactive), the GI50 (SF-268) was 1220 nM (inactive) and the GI50 (SF-295) was 719 nM (active). The GI50 (SF-539) was 1330 nM (inactive), the GI50 (SK-MEL-28) was 1550 nM (inactive) and the GI50 (SK-MEL-2) was 1960 nM (inactive). For the same molecule, the GI50 (SK-MEL-5) was 1520 nM (inactive), the GI50 (SK-OV-3) was 1830 nM (inactive) and the GI50 (SN12C) was 979 nM (active). The GI50 (SNB-19) was 1260 nM (inactive), the GI50 (SNB-75) was 1760 nM (inactive) and the GI50 (SR) was 393 nM (active). For the same molecule, the GI50 (SW-620) was 327 nM (active), the GI50 (T47D) was 1170 nM (inactive) and the GI50 (TK-10) was 2070 nM (inactive). The GI50 (U-251) was 531 nM (active), the GI50 (UACC-257) was 1750 nM (inactive) and the GI50 (UACC-62) was 1600 nM (inactive). The GI50 (UO-31) was 1500 nM (inactive).
